ChEMBL document CHEMBL5500372, “Novel natural osthole-inspired amphiphiles as membrane targeting antibacterials against methicillin-resistant Staphylococcus aureus (MRSA)” (Eur J Med Chem, 2024)
The source made the active and inactive calls. The calls are words filed in the database; no cut-off is given here.

How the values were obtained:
Staphylococcus aureus [1] = test: Antibacterial activity against methicillin-resistant Staphylococcus aureus clinical isolate 23 measured after 18 hrs by CLSI based broth microdilution method; type: functional
Staphylococcus aureus [2] = test: Antibacterial activity against methicillin-resistant Staphylococcus aureus clinical isolate 20 measured after 18 hrs by CLSI based broth microdilution method; type: functional
Staphylococcus aureus [3] = test: Antibacterial activity against methicillin-resistant Staphylococcus aureus clinical isolate 22 measured after 18 hrs by CLSI based broth microdilution method; type: functional
Staphylococcus aureus [4] = test: Antibacterial activity against methicillin-resistant Staphylococcus aureus clinical isolate 14 measured after 18 hrs by CLSI based broth microdilution method; type: functional
Staphylococcus aureus [5] = test: Antibacterial activity against Staphylococcus aureus ATCC 29213 at sub-MIC concentration measured after 20 passages by CLSI micro broth dilution method; type: functional, organism-based
Cell membrane [6] = test: Disruption of cell membrane in methicillin-resistant Staphylococcus aureus clinical isolate 16 assessed as appearance of uneven surface at 16 ug/ml measured after 4 hrs by SEM analysis; type: cell membranes; details: dose 16.0 µg/ml
Cell membrane [7] = test: Disruption of cell membrane in methicillin-resistant Staphylococcus aureus clinical isolate 16 assessed as increase in blue fluorescence at 8 times MIC measured after 4 hrs by DAPI and PI staining based laser confocal microscopy based analysis; type: cell membranes
Cell membrane [8] = test: Induction of cytoplasmic membrane depolarization in methicillin-resistant Staphylococcus aureus clinical isolate 16 assessed as fold increase in fluorescence intensity at 32 time MIC measured after 35 mins by DiSC3-5 dye based fluorescence method
Cell membrane [9] = test: Induction of cell membrane disruption in methicillin-resistant Staphylococcus aureus clinical isolate 16 assessed as intact cells (Q3 region) at 8 ug/ml measured after 2 hrs by SYTO-9 and PI staining based flow cytometry analysis (reference value: 96.0%); type: cell membranes; details: dose 8.0 µg/ml
Cell membrane [10] = test: Induction of cell membrane disruption in methicillin-resistant Staphylococcus aureus clinical isolate 16 assessed as intact cells (Q3 region) at 16 ug/ml measured after 2 hrs by SYTO-9 and PI staining based flow cytometry analysis (reference value: 96.0%); type: cell membranes; details: dose 16.0 µg/ml
Staphylococcus aureus [11] = test: Antibacterial activity against methicillin-resistant Staphylococcus aureus clinical isolate 16 measured after 18 hrs in presence of phosphatidylglycerol by checkerboard broth dilution method; type: functional
Staphylococcus aureus [12] = test: Antibacterial activity against methicillin-resistant Staphylococcus aureus clinical isolate 16 measured after 18 hrs in presence of phosphatidylethanolamine by checkerboard broth dilution method; type: functional, organism-based
Cell membrane [13] = test: Disruption of cell membrane in methicillin-resistant Staphylococcus aureus clinical isolate 16 assessed as increase in intracellular ROS level incubated for 50 mins by DCFH-DA staining based fluorescence assay; type: cell membranes
Cell membrane [14] = test: Disruption of cell membrane in methicillin-resistant Staphylococcus aureus clinical isolate 16 assessed as fold increase in intracellular ROS level at 64 ug/ml incubated for 50 mins by DCFH-DA staining based fluorescence assay; type: cell membranes; details: dose 64.0 µg/ml
Cell membrane [15] = test: Disruption of cell membrane in methicillin-resistant Staphylococcus aureus clinical isolate 16 assessed as increase in DNA leakage incubated for 4 hrs by microspectrophotometric analysis; type: cell membranes; details: dose <= 8.0 µg/ml
L02 = test: Cytotoxicity in human L02 cells measured after 24 hrs by CCK-8 method; type: toxicity, cell-based; details: l02, 24 h
[16] = Cytotoxicity in human L02 cells assessed as survival rate at 16 ug/ml measured after 24 hrs by CCK-8 method relative to control; type: toxicity, cell-based; details: at 16 µg/mL, read-out: Survival
[17] = Toxicity in female KM mouse assessed as survival at 80 mg/kg, sc measured after 24 hrs; type: organism-based; details: in vivo
[18] = Toxicity in female KM mouse assessed as adverse effect on back skin at 5 to 20 mg/kg, sc measured after 24 hrs; type: organism-based; details: in vivo, dose 5-20 mg/kg
[19] = Toxicity in female KM mouse assessed as effect on hemoglobin at upto 20 mg/kg, sc measured after 24 hrs; type: organism-based; details: in vivo
[20] = Toxicity in female KM mouse assessed as effect on red blood cell at upto 20 mg/kg, sc measured after 24 hrs; type: organism-based; details: in vivo
[21] = Toxicity in female KM mouse assessed as effect on hematocrit in blood at upto 20 mg/kg, sc measured after 24 hrs; type: organism-based; details: in vivo
[22] = Toxicity in female KM mouse assessed as effect on albumin at upto 20 mg/kg, sc measured after 24 hrs by biochemical test; type: organism-based; details: in vivo
[23] = Toxicity in female KM mouse assessed as effect on CREA at upto 20 mg/kg, sc measured after 24 hrs by biochemical test; type: organism-based; details: in vivo
[24] = Toxicity in female KM mouse assessed as effect on back skin at 20 mg/kg, sc measured after 24 hrs by H and E staining based analysis; type: organism-based; details: in vivo
[25] = Toxicity in female KM mouse assessed as effect on kidney at 20 mg/kg, sc measured after 24 hrs by H and E staining based analysis; type: organism-based; details: in vivo
[26] = Toxicity in female KM mouse assessed as effect on histopathological abnormalities in back skin at 20 mg/kg, sc measured after 24 hrs by H and E staining based analysis; type: organism-based; details: in vivo
[27] = Toxicity in female KM mouse assessed as effect on histopathological abnormalities in heart at 20 mg/kg, sc measured after 24 hrs by H and E staining based analysis; type: organism-based; details: in vivo
[28] = Toxicity in female KM mouse assessed as effect on histopathological abnormalities in lungs at 20 mg/kg, sc measured after 24 hrs by H and E staining based analysis; type: organism-based; details: in vivo
Staphylococcus aureus [29] = test: Antibacterial activity against methicillin-resistant Staphylococcus aureus clinical isolate 16 infected in female KM mouse skin abscess model assessed as healthy skin on back at 10 mg/kg, sc measured after 24 hrs; type: functional, organism-based
Staphylococcus aureus [30] = test: Antibacterial activity against methicillin-resistant Staphylococcus aureus clinical isolate 16 infected in female KM mouse skin abscess model assessed as effect on skin abscess at 10 mg/kg, sc measured after 24 hrs; type: functional, organism-based
Staphylococcus aureus [31] = test: Antibacterial activity against methicillin-resistant Staphylococcus aureus clinical isolate 16 infected in female KM mouse skin abscess model assessed as effect on abscess in back skin at 5 mg/kg, sc measured after 24 hrs; type: functional, organism-based
Staphylococcus aureus [32] = test: Antibacterial activity against methicillin-resistant Staphylococcus aureus clinical isolate 16 infected in female KM mouse skin abscess model assessed as reduction in number of MRSA cells at 5 to 10 mg/kg, sc measured after 24 hrs; type: functional, organism-based; details: dose 5-10 mg/kg
Staphylococcus aureus [33] = test: Antibacterial activity against methicillin-resistant Staphylococcus aureus clinical isolate 16 infected in female KM mouse skin abscess model assessed as reduction in bacterial load at 5 mg/kg, sc measured after 24 hrs relative to control; type: functional; design: scale not given: the % may be the effect or the level left
[34] = Toxicity in female KM mouse skin abscess model infected with methicillin-resistant Staphylococcus aureus clinical isolate 16 assessed as effect on liver at 5 to 10 mg/kg, sc measured after 24 hrs by H and E staining based analysis; type: organism-based; details: in vivo, dose 5-10 mg/kg
[35] = Toxicity in female KM mouse skin abscess model infected with methicillin-resistant Staphylococcus aureus clinical isolate 16 assessed as effect on lung at 5 to 10 mg/kg, sc measured after 24 hrs by H and E staining based analysis; type: organism-based; details: in vivo, dose 5-10 mg/kg
[36] = Toxicity in female KM mouse skin abscess model infected with methicillin-resistant Staphylococcus aureus clinical isolate 16 assessed as effect on kidney at 5 to 10 mg/kg, sc measured after 24 hrs by H and E staining based analysis; type: organism-based; details: in vivo, dose 5-10 mg/kg

## CCCCCCNC(=O)C[N+](C)(C)CCCCCOc1ccc2ccc(=O)oc2c1CC=C(C)C.[Br-]
Staphylococcus aureus [1]
  MIC: 2 µg/mL
Staphylococcus aureus [2]
  MIC: 2 µg/mL
Staphylococcus aureus [3]
  MIC: 1 µg/mL
Staphylococcus aureus [4]
  MIC: 1 µg/mL
Staphylococcus aureus [5]
  Activity: inactive
Cell membrane [6]
  Activity: Active
Cell membrane [7]
  Activity: Active
Cell membrane [8]
  fold change (FC): 5
Cell membrane [9]
  Activity: 45.3%
Cell membrane [10]
  Activity: 1.1%
Staphylococcus aureus [11]
  MIC: 64 µg/mL
Staphylococcus aureus [12]
  Activity: Active
Cell membrane [13]
  Activity: Dose-Dependent Effect
Cell membrane [14]
  fold change (FC): 7
Cell membrane [15]
  Activity: Dose-Dependent Effect
L02
  Activity: Non-Toxic
[16]
  viability at 24 h, 16 ug/ml: 60%
[17]
  Activity: Non-Toxic
[18]
  Activity: Non-Toxic
[19]
  Activity: Non-Toxic
[20]
  Activity: Non-Toxic
[21]
  Activity: Non-Toxic
[22]
  Activity: Non-Toxic
[23]
  Activity: Non-Toxic
[24]
  Activity: Non-Toxic
[25]
  Activity: Non-Toxic
[26]
  Activity: Non-Toxic
[27]
  Activity: Non-Toxic
[28]
  Activity: Non-Toxic
Staphylococcus aureus [29]
  Activity: Active
Staphylococcus aureus [30]
  Activity: inactive
Staphylococcus aureus [31]
  Activity: Active
Staphylococcus aureus [32]
  Activity: Active
Staphylococcus aureus [33]
  Activity: 99.86%
[34]
  Activity: Non-Toxic
[35]
  Activity: Non-Toxic
[36]
  Activity: Non-Toxic
